Data from BindingDB's records for doi:10.1021/jm001134q (Linkoping University, 2001).

Target: T1, Dimer of Gag-Pol polyprotein [489-587] (Human immunodeficiency virus 1, UniProt P12497)
T1 construct: 489-587
Assay: Protease Inhibition Assay
Conditions: pH 5; 30 °C
Protocol: A fluorimetric assay was used to determine the effects of the inhibitors on HIV-1 protease. This assay used an internally quenched fluorescent peptide substrate. The measurements were performed in 96-well plates with a Fluoroscan plate reader. Excitation and emission wavelengths were 355 nm and 500 nm, respectively.

| Structure (SMILES) | Ki [nM] |
| --- | --- |
| O=C(N[C@H]1c2ccccc2C[C@H]1O)[C@H](OCc1cccc(F)c1)[C@H](O)[C@@H](O)[C@@H](OCc1cccc(F)c1)C(=O)N[C@H]1c2ccccc2C[C@H]1O [(2R,3R,4R,5R)-2,5-bis[(3-fluorophenyl)methoxy]-3,4-dihydroxy-N,N'-bis[(1S,2R)-2-hydroxy-2,3-dihydro-1H-inden-1-yl]hexanediamide] | 7.13 |
| O=C(N[C@H]1c2ccccc2C[C@H]1O)[C@H](OCc1cc(F)cc(F)c1)[C@H](O)[C@@H](O)[C@@H](OCc1cc(F)cc(F)c1)C(=O)N[C@H]1c2ccccc2C[C@H]1O [(2R,3R,4R,5R)-2,5-bis[(3,5-difluorophenyl)methoxy]-3,4-dihydroxy-N,N'-bis[(1S,2R)-2-hydroxy-2,3-dihydro-1H-inden-1-yl]hexanediamide] | 5 |
| O=C(N[C@H]1c2ccccc2C[C@H]1O)[C@H](OCc1cc(F)ccc1F)[C@H](O)[C@@H](O)[C@@H](OCc1cc(F)ccc1F)C(=O)N[C@H]1c2ccccc2C[C@H]1O [(2R,3R,4R,5R)-2,5-bis[(2,5-difluorophenyl)methoxy]-3,4-dihydroxy-N,N'-bis[(1S,2R)-2-hydroxy-2,3-dihydro-1H-inden-1-yl]hexanediamide] | 3.29 |
| O=C(N[C@H]1c2ccccc2C[C@H]1O)[C@H](OCc1ccc(F)cc1)[C@H](O)[C@@H](O)[C@@H](OCc1ccc(F)cc1)C(=O)N[C@H]1c2ccccc2C[C@H]1O [(2R,3R,4R,5R)-2,5-bis[(4-fluorophenyl)methoxy]-3,4-dihydroxy-N,N'-bis[(1S,2R)-2-hydroxy-2,3-dihydro-1H-inden-1-yl]hexanediamide] | 5.39 |
| O=C(N[C@H]1c2ccccc2C[C@H]1O)[C@H](OCc1c(F)cccc1F)[C@H](O)[C@@H](O)[C@@H](OCc1c(F)cccc1F)C(=O)N[C@H]1c2ccccc2C[C@H]1O [N1,N6-Bis-[(2R)-hydroxy-1(S)-indanyl]-(2R,3R,4R,5R)-2.5-bis-(2,6-difluorobenzyloxy)-3,4-dihydroxyhexanediamide] | 1.64 |
| O=C(N[C@H]1c2ccccc2C[C@H]1O)[C@H](OCc1ccc(F)c(F)c1)[C@H](O)[C@@H](O)[C@@H](OCc1ccc(F)c(F)c1)C(=O)N[C@H]1c2ccccc2C[C@H]1O [N1,N6-Bis-[(2R)-hydroxy-1(S)-indanyl]-(2R,3R,4R,5R)-2.5-bis-(3,4-difluorobenzyloxy)-3,4-dihydroxyhexanediamide] | 3.9 |
| O=C(N[C@H]1c2ccccc2C[C@H]1O)[C@H](OCc1ccccc1F)[C@H](O)[C@@H](O)[C@@H](OCc1ccccc1F)C(=O)N[C@H]1c2ccccc2C[C@H]1O [(2R,3R,4R,5R)-2,5-bis[(2-fluorophenyl)methoxy]-3,4-dihydroxy-N,N'-bis[(1S,2R)-2-hydroxy-2,3-dihydro-1H-inden-1-yl]hexanediamide] | 3.26 |
| O=C(N[C@H]1c2ccccc2C[C@H]1O)[C@H](OCc1ccc(F)cc1F)[C@H](O)[C@@H](O)[C@@H](OCc1ccc(F)cc1F)C(=O)N[C@H]1c2ccccc2C[C@H]1O [N1,N6-Bis-[(2R)-hydroxy-1(S)-indanyl]-(2R,3R,4R,5R)-2.5-bis-(2,4-difluorobenzyloxy)-3,4-dihydroxyhexanediamide] | 1.65 |
| O=C(N[C@H]1c2ccccc2C[C@H]1O)[C@H](OCc1ccccc1)[C@H](O)[C@@H](O)[C@@H](OCc1ccccc1)C(=O)N[C@H]1c2ccccc2C[C@H]1O [symmetric/asymmetric inhibitor 2] | 1.22 |
| O=C(N[C@H]1c2ccccc2C[C@H]1O)[C@H](OCc1cccc(F)c1F)[C@H](O)[C@@H](O)[C@@H](OCc1cccc(F)c1F)C(=O)N[C@H]1c2ccccc2C[C@H]1O [N1,N6-Bis-[(2R)-hydroxy-1(S)-indanyl]-(2R,3R,4R,5R)-2.5-bis-(2,3-difluorobenzyloxy)-3,4-dihydroxyhexanediamide] | 4 |
